Assay results as given in patent US20220356170A1, “SREBP INHIBITOR COMPRISING A THIOPHENE CENTRAL RING” (Capulus Therapeutics, LLC, priority 2019, published 2022).
Converted amounts (≈) assume the structure as drawn.

Experiments:
[1] = system: HepG2 stably expressing LSS-Luciferase transgene (SREBP transcriptional activity); assay: Reporter screening assay, SRE-luciferase reporter; assay type: cell-based; conditions: Homo sapiens, 0% FCS media, 24 hours
Experimental: The effect of Compound 1 on transcriptional activity SREBP was evaluated using an SRE-luciferase reporter construct.
After 24 hours incubation medium cells were treated with various Lovastatin concentrations (10 μM, 5 μM and 1 μM). After 24 hours treatment plates were covered with aluminum foil and frozen at −80° C. overnight. Plates were thawed to room temperature and Luciferase assay was performed. Cells were seeded in a 96 well plate in 10% FCS DMEM media and incubated for 24 hours. Then, they are switched to 0% FCS Media with Compound 1 or DMSO control for another 24 hours, at which point they are assayed for activity of LSS-reporter.
Reagents for performing Luciferase assay were stored at −20° C. To a tube of lyophilized assay substrate was added 1 mL Substrate Solvent and mixed well. The Substrate tube after reconstitution was covered with aluminum foil so as to keep it protected from light. […]
Using a multi-channel pipette, 100 μL Assay Solution (buffer+substrate) was added directly to each sample well in Plate 1, which was incubated for 30 min (plate was covered with aluminum foil). After 30 min incubation, the plate was read for total luminescence. Each well was read for 2 seconds in a plate luminometer. (Microplate reader Envision Microplate reader from Perkin Elmer). Precaution was taken to incubate plate exactly for 30 min prior to reading on the plate reader. […]

[2] = system: SREBP Target Gene in HepG2 cells; assay: Q-PCR analysis of SREBP target gene expression; assay type: cell-based; conditions: 500 nM, 48 hour
Experimental: The effect of Compound 1 on the gene expression of HepG2 cells was evaluated.
HepG2 cells (P2) were seeded in 24 well plate (80,000 cells/ well) for RNA extraction and in a 96 well plate (10,000 cells/ well) for Cell Titer Glow (CTG). The media used was DMEM and contained 10% FBS. Compound 1 was evaluated at […] for 48 hours. Two biological replicates per experimental group were evaluated for RNA, and 3 biological replicates per experimental group analyzed with CTG.
For gene analysis RNA was harvested with RNEasy kit and 20-100 ng used to synthesize cDNA with random primers. Quantitative PCR was performed on 1 pg to 100 ng cDNA for the following genes: ACACA, ACLY, FASN, LSS, PNPLA3. Gene expression levels were determined using […] comparing treated to mock or vehicle treated cells as a baseline.

[3] = Kinetic solubility; assay type: physicochemical; conditions: aqueous buffer, kinetic from dmso stock, pH 7.4 buffer, room temperature, 1.0% DMSO
Experimental: Kinetic Solubility Procedure: A 10 mM stock solution of Compound 1 was prepared in DMSO, then 4 μL of the stock was added to a deep well plate containing 396 μL of pH 7.4 buffer. The sample plate was vortexed at 800 rpm for 24 h on thermomixer at room temperature. The plate was sealed well during the incubation process. The DMSO content in the sample was 1.0%. The concentration of Compound 1 in the final incubation was 100 μM. At the end of the incubation period, the sample plate was centrifuged at 4000 rpm for 10 min and analyzed in LC-UV against a calibration curve (CC).

[4] = Half-life in mouse liver microsomes; assay type: in vitro ADME; conditions: read-out: Mouse LM: Half life
Experimental: (§1) Half-life Human Microsomes: Compound 1 was evaluated for stability in human liver microsomes. A 10 mM stock solution of Compound 1 was prepared in DMSO and diluted with water: acetonitrile (1:1) to a concentration of 1 mM. A working concentration of 100 μM was prepared by further dilution with water: acetonitrile (1:1). To make the preincubation mixture, 2.5 μL of the diluted Compound 1 was combined with 75 μL of human liver microsomes at 3.33 mg/mL, and 85 μL of 100 mM potassium phosphate buffer, and this mixture pre-incubated for 10 min at 37° C. To make the 60 minute mixture without cofactor, 32.5 μL of the preincubation mixture was combined with 17.5 μL of 100 mM potassium phosphate buffer and incubated for 60 min at 37° C. […] To prepare the sample mixture to be evaluated, 25 μL incubation mixture was combined with 200 μL of acetonitrile containing internal standard and vortexed for 5 min at 1200 rpm, then centrifuged for 10 min at 4000 rpm. […] The sample mixture was evaluated by LC-MS/MS using 10 mM ammonium acetate with 0.1% FA as the aqueous mobile phase, and methanol as the organic mobile phase.
(§2) Half-life Rat and Mouse Microsomes: Compound 1 was evaluated in rat and mouse liver microsomes following a similar procedure as described above for human liver microsomes.

[5] = Half-life in rat liver microsomes; assay type: in vitro ADME; conditions: read-out: Rat LM: Half life
Experimental: as §1, §2

[6] = In vitro % Fu, mouse plasma; assay type: in vitro ADME; conditions: read-out: In Vitro % Fu (Mo Plasma)
[7] = treated compared to mock or vehicle treated cells as baseline

EC50 [1]: 0.15 µM | solubility kinetic at 24 h [3]: 37 µM (≈ 16.9 µg/mL) | half-life at 1 µM [4]: 2 h | half-life at 1 µM [5]: 1.68 h | fraction unbound [6]: 0.007
Structure (SMILES): CC(C)(O)c1cc(-c2csc(-c3ccc(C(=O)N4CCC(O)CC4)cc3Cl)c2)ccn1 [Compound 1, (3-chloro-4-(4-(2-(2-hydroxypropan-2-yl)pyridin-4-yl)thiophen-2-yl)phenyl)(4-hydroxypiperidin-1-yl)methanone]
Total Gene Average ([2]; average of ACACA, ACLY, FASN, LSS, PNPLA3): 0.467 | ACACA gene expression (Q-PCR) [2, 7]: 0.648 | ACLY gene expression (Q-PCR) [2, 7]: 0.663 | FASN gene expression (Q-PCR) [2, 7]: 0.542 | LSS gene expression (Q-PCR) [2, 7]: 0.295 | PNPLA3 gene expression (Q-PCR) [2, 7]: 0.187
